For 18 compounds, EC50 results are on record in patent publication US20250011288A1 (BRISTOL-MYERS SQUIBB COMPANY, priority 2021, published 2025).

The target in this experiment is T1, human RXFP1 (Homo sapiens, UniProt Q9HBX9).
T1 construct: expressed in transfected cells
T1 sequence (Q9HBX9 1-757): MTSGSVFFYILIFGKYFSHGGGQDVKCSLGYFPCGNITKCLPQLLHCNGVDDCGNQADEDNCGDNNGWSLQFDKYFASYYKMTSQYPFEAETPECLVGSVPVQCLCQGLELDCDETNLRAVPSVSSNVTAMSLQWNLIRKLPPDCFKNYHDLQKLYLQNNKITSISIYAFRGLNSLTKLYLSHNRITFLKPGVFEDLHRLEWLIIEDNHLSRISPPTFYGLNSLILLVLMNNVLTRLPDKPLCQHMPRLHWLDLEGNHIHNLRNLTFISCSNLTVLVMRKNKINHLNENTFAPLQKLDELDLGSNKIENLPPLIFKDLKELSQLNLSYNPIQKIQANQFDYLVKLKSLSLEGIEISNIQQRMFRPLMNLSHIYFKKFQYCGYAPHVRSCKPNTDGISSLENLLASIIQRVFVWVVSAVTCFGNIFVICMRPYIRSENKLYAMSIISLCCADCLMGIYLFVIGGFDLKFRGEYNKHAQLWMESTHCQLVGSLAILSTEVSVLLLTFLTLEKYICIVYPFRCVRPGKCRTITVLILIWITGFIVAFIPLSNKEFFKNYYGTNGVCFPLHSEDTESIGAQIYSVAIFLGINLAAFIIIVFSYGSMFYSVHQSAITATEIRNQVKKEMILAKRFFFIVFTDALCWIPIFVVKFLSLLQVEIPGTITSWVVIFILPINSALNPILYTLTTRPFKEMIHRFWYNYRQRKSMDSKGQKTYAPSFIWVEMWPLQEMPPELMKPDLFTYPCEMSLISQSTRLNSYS
Nature of the experiment: human RXFP1 (hRXFP1) HEK293 cAMP assay (HTRF). The following applies: HEK293 cells stably expressing human RXFP1, 30 min at room temperature. It counts as cell-based. The essentials:
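HEK293 cells stably expressing human RXFP1 (1500 cells/well) in HBSS/20 mM HEPES/0.05% BSA/0.5 mM IBMX, treated with compound (0.010 nM–50 µM final, 2% DMSO) for 30 min at room temperature. Intracellular cAMP read by HTRF; potency from 4-parameter logistic fit of cAMP versus concentration.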
(In general: Cyclic AMP is a second messenger, typically raised through Gs and lowered through Gi signalling.)
Compound `COc1ncc(-c2cc([C@H](OC(=O)Nc3ccccc3)C(F)(F)F)ccc2F)cc1C(=O)N[C@@H]1C2CCC(/C2=C/C2CC2)[C@@H]1C(=O)Nc1ccc(F)c(C(F)(F)F)c1` (stereo partly drawn) [Example 186, (1S)-1-[3-(5-{[(2R,3S,7Z)-7-(cyclopropyl-methylidene)-3-{[4-fluoro-3-(trifluoromethyl)phenyl]carbamoyl}bicyclo[2.2.1]heptan-2-yl]carbamoyl}-6-methoxypyridin-3-yl)-4-fluorophenyl]-2,2,2-trifluoroethyl N-phenylcarbamate] returned an EC50 of 0.8 nM. In the case of `COc1ncccc1C(=O)N[C@@H]1C2CCC(C2=C(C)C)[C@@H]1C(=O)Nc1ccc(F)c(C(F)(F)F)c1` (stereo partly drawn) [Example 8, N-[(2R,3S)-3-{[4-fluoro-3-(trifluoromethyl)phenyl]carbamoyl}-7-(propan-2-ylidene)bicyclo [2.2.1]heptan-2-yl]-2-methoxypyridine-3-carboxamide] it was 1300 nM; in that of `COc1ncc(C2=NOC3COCC23)cc1C(=O)N[C@H]1[C@@H](C(=O)N[C@H](C)C2(C)CC2)[C@H]2CC[C@@H]1/C2=C\C1CC1` (stereo partly drawn) [Example 137, N-((1R,2R,3S,4R,Z)-7-(cyclopropyl-methylene)-3-(((R)-1-(1-methylcyclopropyl)ethyl)carbamoyl)bicyclo[2.2.1]heptan-2-yl)-2-methoxy-5-(3a,4,6,6a-tetrahydrofuro[3,4-d]isoxazol-3-yl)nicotinamide], 3 nM; in that of `CNC(=O)O[C@@H](c1ccc(F)c(-c2cnc(OC)c(C(=O)N[C@@H]3C4CCC(/C4=C/C4CC4)[C@@H]3C(=O)Nc3ccc(F)c(C(F)(F)F)c3)c2)c1)C(F)(F)F` (stereo partly drawn) [Example 182, (1S)-1-[3-(5-{[(2R,3S,7Z)-7-(cyclopropyl-methylidene)-3-{[4-fluoro-3-(trifluoromethyl)phenyl]carbamoyl}bicyclo[2.2.1]heptan-2-yl]carbamoyl}-6-methoxypyridin-3-yl)-4-fluorophenyl]-2,2,2-trifluoroethyl N-methylcarbamate], 2.6 nM. In the case of `COc1ncc(C2=NOC3CC(C(C)O)CC23)cc1C(=O)N[C@H]1[C@@H](C(=O)Nc2ccc(F)c(C(F)(F)F)c2)[C@H]2CC[C@@H]1/C2=C\CCC(F)(F)F` (stereo partly drawn) [Example 124, N-((1R,2R,3S,4R,Z)-3-((4-fluoro-3-(trifluoromethyl)phenyl)carbamoyl)-7-(4,4,4-trifluorobutylidene)bicyclo[2.2.1]heptan-2-yl)-5-(5-(1-hydroxyethyl)-3a,5,6,6a-tetrahydro-4H-cyclopenta[d]isoxazol-3-yl)-2-methoxynicotinamide] it was 3.6 nM; in that of `N#Cc1ccc2c(c1)CCc1c(C(=O)N[C@H]3[C@@H](C(=O)Nc4ccc(F)c(C(F)(F)F)c4)[C@H]4CC[C@@H]3/C4=C\C(F)(F)F)nn(CC(F)F)c1-2` [Example 55, 7-cyano-1-(2,2-difluoroethyl)-N-((1R,2R,3S,4R,Z)-3-((4-fluoro-3-(trifluoromethyl)phenyl)carbamoyl)-7-(2,2,2-trifluoroethylidene)bicyclo[2.2.1]heptan-2-yl)-4,5-dihydro-1H-benzo[g]indazole-3-carboxamide], 360 nM; in that of `COc1ncc(-c2cc([C@H](OC(=O)NC3CCC3)C(F)(F)F)ccc2F)cc1C(=O)N[C@@H]1C2CCC(/C2=C/CCC(F)(F)F)[C@@H]1C(=O)Nc1ccc(F)c(C(F)(F)F)c1` (stereo partly drawn) [Example 168, (1S)-2,2,2-trifluoro-1-[4-fluoro-3-(5-{[(2R,3S,7Z)-3-{[4-fluoro-3-(trifluoromethyl)phenyl]carbamoyl}-7-(4,4,4-trifluorobutylidene)bicyclo[2.2.1]heptan-2-yl]carbamoyl}-6-methoxypyridin-3-yl)phenyl]ethyl N-cyclobutyl-carbamate], 5.3 nM. In the case of `COc1ncc(-c2cc([C@H](OC(=O)N3CCS(=O)(=O)CC3)C(F)(F)F)ccc2F)cc1C(=O)N[C@@H]1C2CCC(/C2=C/C2CC2)[C@@H]1C(=O)Nc1ccc(F)c(C(F)(F)F)c1` (stereo partly drawn) [Example 187, (1S)-1-[3-(5-{[(2R,3S,7Z)-7-(cyclopropyl-methylidene)-3-{[4-fluoro-3-(trifluoromethyl)phenyl]carbamoyl}bicyclo[2.2.1]heptan-2-yl]carbamoyl}-6-methoxypyridin-3-yl)-4-fluorophenyl]-2,2,2-trifluoroethyl 1,1-dioxo-1λ^6-thiomorpholine-4-carboxylate] it was 5.3 nM; in that of `COc1ncc(-c2cc([C@H](OC(=O)NC3CCC3)C(F)(F)F)ccc2F)cc1C(=O)N[C@H]1[C@@H](C(=O)N[C@H](C)C2(C)CC2)[C@H]2CC[C@@H]1/C2=C\C1CC(F)(F)C1` [Example 188, (1S)-1-[3-(5-{[(1R,2R,3S,4R,7Z)-7-[(3,3-difluorocyclobutyl)methylidene]-3-{[(1R)-1-(1-methylcyclopropyl)ethyl]carbamoyl}bicyclo[2.2.1]heptan-2-yl]carbamoyl}-6-methoxypyridin-3-yl)-4-fluorophenyl]-2,2,2-trifluoroethyl N-cyclobutyl-carbamate], 0.5 nM. Take `O=C(N[C@@H]1C2CCC(/C2=C/C2CC2)[C@@H]1C(=O)Nc1ccc(F)c(C(F)(F)F)c1)c1cncc(C2=NOC3COCC23)c1` (single isomer, unassigned) [Example 62]: the 50% effective concentration (EC50) was 2400 nM. Under `COc1ncc(C2=NOC3CC(CO)CC23)cc1C(=O)N[C@H]1[C@@H](C(=O)Nc2ccc(F)c(C(F)(F)F)c2)[C@H]2CC[C@@H]1/C2=C\C1CCCC1` (stereo partly drawn) [Example 172, N-[(1R,2R,3S,4R, 7Z)-7-(cyclopentyl-methylidene)-3-{[4-fluoro-3-(trifluoromethyl)phenyl]carbamoyl}bicyclo[2.2.1]heptan-2-yl]-5-[5-(hydroxymethyl) 3aH,4H,5H,6H, 6aH-cyclopenta[d][1,2]oxazol-3-yl]-2-methoxypyridine-3-carboxamide] stands 4.3 nM; under `CCCc1cnc(OC)c(C(=O)N[C@@H]2C3CCC(/C3=C/C(F)(F)F)[C@@H]2C(=O)Nc2ccc(F)c(C(F)(F)F)c2)c1` (stereo partly drawn) [Example 51, N-[(2R,3S,7Z)-3-{[4-fluoro-3-(trifluoromethyl)phenyl]carbamoyl}-7-(2,2,2-trifluoroethylidene)bicyclo[2.2.1]heptan-2-yl]-2-methoxy-5-propylpyridine-3-carboxamide], 1300 nM; under `COc1ncncc1C(=O)N[C@@H]1C2CCC(C2=C(C)C)[C@@H]1C(=O)Nc1ccc(F)c(C(F)(F)F)c1` (stereo partly drawn) [Example 10, N-[(2R,3S)-3-{[4-fluoro-3-(trifluoromethyl)phenyl]carbamoyl}-7-(propan-2-ylidene)bicyclo [2.2.1]heptan-2-yl]-4-methoxypyrimidine-5-carboxamide], 5000 nM. Under `COc1ncc(C(=O)N2CC3(COC3)C2)cc1C(=O)N[C@H]1[C@@H](C(=O)Nc2ccc(F)c(C(F)(F)F)c2)[C@H]2CC[C@@H]1/C2=C\C1CC1` [Example 76, N-[(1R,2R, 3S,4R,7Z)-7-(cyclopropyl-methylidene)-3-{[4-fluoro-3-(trifluoromethyl)phenyl]carbamoyl}bicyclo[2.2.1]heptan-2-yl]-2-methoxy-5-{2-oxa-6-azaspiro[3.3]heptane-6-carbonyl}pyridine-3-carboxamide] stands 65 nM. In the case of `COc1ncc(C2=NOC3COCC23)cc1C(=O)N[C@H]1[C@@H](C(=O)Nc2ccc(F)c(C(F)(F)F)c2)[C@H]2CC[C@@H]1/C2=C\C1CC1` (single isomer, unassigned) [Example 60] it was 210 nM; in that of “N- ((1R,2R,3S,4R,Z)- 3-((4-fluoro-3- (trifluoromethyl) phenyl)carbamoyl)- 7-3- hydroxy- propylidene) bicyclo[2.2.1] heptan-2-yl)-5-(5- (hydroxymethyl)- 3a,5,6,6a- tetrahydro-4H- cyclopenta[d] isoxazol-3-yl)-2- methoxy- nicotinamide [Example 114]”, 1.2 nM.

Compound `COc1nccnc1C(=O)N[C@@H]1C2CCC(C2=C(C)C)[C@@H]1C(=O)Nc1ccc(F)c(C(F)(F)F)c1` (stereo partly drawn) [Example 7, N-[(2R,3S)-3-{[4-fluoro-3-(trifluoromethyl)phenyl]carbamoyl}-7-(propan-2-ylidene)bicyclo [2.2.1]heptan-2-yl]-3-methoxypyrazine-2-carboxamide] registered an EC50 of 1200 nM. This EC50 lies about 1000-fold higher than the previous one. For `COc1ncc(C2=NOC3CC(C(OC(=O)Nc4ccccc4)C(F)(F)F)CC23)cc1C(=O)N[C@H]1[C@@H](C(=O)Nc2ccc(F)c(C(F)(F)F)c2)[C@H]2CC[C@@H]1/C2=C\C1CCCC1` (stereo partly drawn) [Example 174, 1-[3-(5-{[(1R,2R,3S,4R, 7Z)-7-(cyclopentyl-methylidene)-3-{[4-fluoro-3-(trifluoromethyl)phenyl]carbamoyl}bicyclo[2.2.1]heptan-2-yl]carbamoyl}-6-methoxypyridin-3-yl)-3aH,4H,5H,6H, 6aH-cyclopenta[d][1,2]oxazol-5-yl]-2,2,2-trifluoroethyl N-phenylcarbamate], the EC50 was 1.9 nM.

For orientation: EC50 means the midpoint of the concentration-response curve. Low values mean an effect from little substance, high ones a need for much substance.
